Test results taken from ChEMBL document CHEMBL5537201, “Discovery of Unique Bis-Substituted Aromatic Amide Derivatives as Novel Highly Potent Antibiotics for Combating Methicillin-Resistant Staphylococcus aureus (MRSA)” (J Med Chem, 2024).
Converted amounts (≈) assume the structure as drawn. The source made the active and inactive calls. No cut-off for these calls is given here.

What was measured:
Staphylococcus aureus [1] = assay: Antimicrobial activity against methicillin resistant Staphylococcus aureus clinical isolate MRS207 assessed as reduction in bacterial growth incubated for 24 hrs by two-fold broth dilution method; assay type: functional
Staphylococcus aureus [2] = assay: Induction of drug resistance in Staphylococcus aureus ATCC6538 assessed as change in MIC measured after 10 passages; assay type: functional
HeLa = assay: Cytotoxicity against human HeLa cells assessed as reduction in cell viability measured after 24 hrs by CCK-8 method; assay type: functional, cell-based
Staphylococcus aureus [3] = assay: Antimicrobial activity against Staphylococcus aureus ATCC6538 assessed as reduction in bacterial growth incubated for 24 hrs by two-fold broth dilution method; assay type: functional
[4] = Cytotoxicity against African green monkey Vero E6 cells assessed as reduction in cell viability measured after 24 hrs by CCK-8 method; assay type: toxicity, cell-based, Chlorocebus sabaeus, Vero C1008
Staphylococcus aureus [5] = assay: Antimicrobial activity against methicillin resistant Staphylococcus aureus clinical isolate MRS97 assessed as reduction in bacterial growth incubated for 24 hrs by two-fold broth dilution method; assay type: functional
Staphylococcus aureus [6] = assay: Antimicrobial activity against Staphylococcus aureus N315 assessed as reduction in bacterial growth incubated for 24 hrs by two-fold broth dilution method; assay type: functional
Staphylococcus aureus [7] = assay: Antimicrobial activity against methicillin resistant Staphylococcus aureus clinical isolate MRS23 assessed as reduction in bacterial growth incubated for 24 hrs by two-fold broth dilution method; assay type: functional
Staphylococcus hominis = assay: Antimicrobial activity against methicillin-resistant Staphylococcus hominis assessed as reduction in bacterial growth incubated for 24 hrs by two-fold broth dilution method; assay type: functional
Staphylococcus aureus [8] = assay: Antimicrobial activity against methicillin resistant Staphylococcus aureus clinical isolate MRS1 assessed as reduction in bacterial growth incubated for 24 hrs by two-fold broth dilution method; assay type: functional
Streptomyces albus = assay: Antimicrobial activity against Streptomyces albus SHBC D11158 assessed as reduction in bacterial growth incubated for 24 hrs by two-fold broth dilution method; assay type: functional
Staphylococcus aureus [9] = assay: Antimicrobial activity against methicillin resistant Staphylococcus aureus clinical isolate MRS121 assessed as reduction in bacterial growth incubated for 24 hrs by two-fold broth dilution method; assay type: functional
Staphylococcus aureus [10] = assay: Antimicrobial activity against methicillin resistant Staphylococcus aureus clinical isolate MRS108 assessed as reduction in bacterial growth incubated for 24 hrs by two-fold broth dilution method; assay type: functional
[11] = Selectivity index, ratio of HC50 for rabbit Red blood cell to MIC for Staphylococcus aureus ATCC6538; assay type: toxicity; conditions: red blood cells (erythrocytes), read-out: Selectivity Index
[12] = Selectivity index, ratio of IC50 for African green monkey Vero E6 cells to MIC for Staphylococcus aureus ATCC6538; assay type: toxicity; conditions: read-out: Selectivity Index
[13] = Cytotoxicity against human HaCaT cells assessed as reduction in cell viability measured after 24 hrs by CCK-8 method; assay type: toxicity, cell-based
Staphylococcus aureus [14] = assay: Antimicrobial activity against methicillin resistant Staphylococcus aureus clinical isolate MRS70 assessed as reduction in bacterial growth incubated for 24 hrs by two-fold broth dilution method; assay type: functional
Staphylococcus aureus [15] = assay: Antimicrobial activity against methicillin resistant Staphylococcus aureus clinical isolate MRS153 assessed as reduction in bacterial growth incubated for 24 hrs by two-fold broth dilution method; assay type: functional
Staphylococcus aureus [16] = assay: Antimicrobial activity against methicillin resistant Staphylococcus aureus clinical isolate MRS200 assessed as reduction in bacterial growth incubated for 24 hrs by two-fold broth dilution method; assay type: functional
A549 = assay: Cytotoxicity against human A549 cells assessed as reduction in cell viability measured after 24 hrs by CCK-8 method; assay type: functional, cell-based; conditions: A549, 24 h
[17] = Hemolytic activity in rabbit Red blood cell assessed as hemolysis incubated for 1 hr by two-fold microdilution method; assay type: toxicity, cell-based, Oryctolagus cuniculus, Erythrocyte; conditions: red blood cells (erythrocytes)
[18] = Cytotoxicity against HEK293 cells assessed as reduction in cell viability measured after 24 hrs by CCK-8 method; assay type: toxicity, cell-based; conditions: human
Staphylococcus aureus [19] = assay: Antimicrobial activity against methicillin resistant Staphylococcus aureus clinical isolate MRS84 assessed as reduction in bacterial growth incubated for 24 hrs by two-fold broth dilution method; assay type: functional
Staphylococcus aureus [20] = assay: Antimicrobial activity against methicillin resistant Staphylococcus aureus clinical isolate MRS273 assessed as reduction in bacterial growth incubated for 24 hrs by two-fold broth dilution method; assay type: functional
Staphylococcus aureus [21] = assay: Antimicrobial activity against methicillin resistant Staphylococcus aureus clinical isolate MRS152 assessed as reduction in bacterial growth incubated for 24 hrs by two-fold broth dilution method; assay type: functional

## O=C(CCC(F)(F)F)N(Cc1cc2ccccc2s1)c1cc(-c2ccc(Cl)cc2)ccc1O
Staphylococcus aureus [1]
  MIC: 16 µg/mL (≈ 32.7 µM)
Staphylococcus aureus [2]
  Activity: Active
HeLa
  IC50: 22.8 µg/mL (≈ 46.6 µM)
Staphylococcus aureus [3]
  MIC: 1 µg/mL (≈ 2.04 µM)
[4]
  IC50 at 24 h: 21.5 µg/mL (≈ 43.8 µM)
Staphylococcus aureus [5]
  MIC: 3 µg/mL (≈ 6.12 µM)
Staphylococcus aureus [6]
  MIC: 1 µg/mL (≈ 2.04 µM)
Staphylococcus aureus [7]
  MIC: 16 µg/mL (≈ 32.7 µM)
Staphylococcus hominis
  MIC: 4 µg/mL (≈ 8.16 µM)
Staphylococcus aureus [8]
  MIC: 6 µg/mL (≈ 12.2 µM)
Streptomyces albus
  MIC: 4 µg/mL (≈ 8.16 µM)
Staphylococcus aureus [9]
  MIC: 3 µg/mL (≈ 6.12 µM)
Staphylococcus aureus [10]
  MIC: 6 µg/mL (≈ 12.2 µM)
[11]
  selectivity ratio: > 1000
[12]
  selectivity ratio: 21
[13]
  IC50 at 24 h: 13.8 µg/mL (≈ 28.2 µM)
Staphylococcus aureus [14]
  MIC: 6 µg/mL (≈ 12.2 µM)
Staphylococcus aureus [15]
  MIC: 6 µg/mL (≈ 12.2 µM)
Staphylococcus aureus [16]
  MIC: 16 µg/mL (≈ 32.7 µM)
A549
  IC50: 16.2 µg/mL (≈ 33.1 µM)
[17]
  HC50 at 1 h: 1920 µg/mL
[18]
  IC50 at 24 h: > 25 µg/mL
Staphylococcus aureus [19]
  MIC: 3 µg/mL (≈ 6.12 µM)
Staphylococcus aureus [20]
  MIC: 16 µg/mL (≈ 32.7 µM)
Staphylococcus aureus [21]
  MIC: 6 µg/mL (≈ 12.2 µM)

## CCCCC(=O)N(Cc1cc2ccccc2s1)c1ccc2ccccc2c1O
Staphylococcus aureus [3]
  MIC: 15.6 µg/mL (≈ 40.1 µM)
Staphylococcus aureus [6]
  MIC: 15.6 µg/mL (≈ 40.1 µM)

## O=C(CCC(F)(F)F)N(Cc1cc2ccccc2s1)c1cc(-c2ccncc2)ccc1O
Staphylococcus aureus [3]
  MIC: > 16 µg/mL
Staphylococcus aureus [6]
  MIC: > 16 µg/mL

## O=C(CCCCl)N(Cc1cc2ccccc2s1)c1ccc2ccccc2c1O
Staphylococcus aureus [3]
  MIC: 7.8 µg/mL (≈ 19 µM)
Staphylococcus aureus [6]
  MIC: 31.2 µg/mL (≈ 76.2 µM)

## O=C(CCC(F)(F)F)N(Cc1cc2ccccc2s1)c1ccc(-c2ccccc2)c(O)c1
Staphylococcus aureus [3]
  MIC: 2 µg/mL (≈ 4.39 µM)
Staphylococcus aureus [6]
  MIC: > 16 µg/mL

## CCCCC(=O)N(Cc1ccc2c(c1)OCCO2)c1ccc2ccccc2c1O
Staphylococcus aureus [3]
  MIC: 31.2 µg/mL (≈ 79.8 µM)
Staphylococcus aureus [6]
  MIC: 62.5 µg/mL (≈ 160 µM)

## O=C(CCC(F)(F)F)N(Cc1cc2ccccc2s1)c1ccc(-c2ccccc2)cc1O
Staphylococcus aureus [3]
  MIC: 2 µg/mL (≈ 4.39 µM)
Staphylococcus aureus [6]
  MIC: 3 µg/mL (≈ 6.59 µM)

## O=C(CCC(F)(F)F)N(Cc1cc2ccccc2s1)c1ccc2ccccc2c1O
Staphylococcus aureus [3]
  MIC: 2 µg/mL (≈ 4.66 µM)
Staphylococcus aureus [6]
  MIC: 2 µg/mL (≈ 4.66 µM)

## CCCCC(=O)N(Cc1cc(C(C)(C)C)cc(C(C)(C)C)c1)c1ccc2ccccc2c1O
Staphylococcus aureus [3]
  MIC: 62.5 µg/mL (≈ 140 µM)
Staphylococcus aureus [6]
  MIC: 62.5 µg/mL (≈ 140 µM)

## COc1cccc(-c2ccc(O)c(N(Cc3cc4ccccc4s3)C(=O)CCC(F)(F)F)c2)c1
Staphylococcus aureus [1]
  MIC: > 16 µg/mL
Staphylococcus aureus [3]
  MIC: 1 µg/mL (≈ 2.06 µM)
Staphylococcus aureus [5]
  MIC: 6 µg/mL (≈ 12.4 µM)
Staphylococcus aureus [6]
  MIC: 1 µg/mL (≈ 2.06 µM)
Staphylococcus aureus [7]
  MIC: 6 µg/mL (≈ 12.4 µM)
Staphylococcus hominis
  MIC: > 32 µg/mL
Staphylococcus aureus [8]
  MIC: > 16 µg/mL
Streptomyces albus
  MIC: > 32 µg/mL
Staphylococcus aureus [9]
  MIC: > 16 µg/mL
Staphylococcus aureus [10]
  MIC: 6 µg/mL (≈ 12.4 µM)
Staphylococcus aureus [14]
  MIC: > 16 µg/mL
Staphylococcus aureus [15]
  MIC: > 16 µg/mL
Staphylococcus aureus [16]
  MIC: > 16 µg/mL
Staphylococcus aureus [19]
  MIC: 16 µg/mL (≈ 33 µM)
Staphylococcus aureus [20]
  MIC: 16 µg/mL (≈ 33 µM)
Staphylococcus aureus [21]
  MIC: > 16 µg/mL

## O=C(CCC(F)(F)F)N(Cc1cc2ccccc2s1)c1cc(-c2ccc(Br)cc2)ccc1O
Staphylococcus aureus [3]
  MIC: 2 µg/mL (≈ 3.74 µM)
Staphylococcus aureus [6]
  MIC: 3 µg/mL (≈ 5.61 µM)

## O=C(CCC(F)(F)F)N(Cc1cc2ccccc2s1)c1cc(-c2ccccc2C(F)(F)F)ccc1O
Staphylococcus aureus [3]
  MIC: > 16 µg/mL
Staphylococcus aureus [6]
  MIC: > 16 µg/mL

## CCCCC(=O)N(Cc1ccc2sccc2c1)c1ccc2ccccc2c1O
Staphylococcus aureus [3]
  MIC: 31.2 µg/mL (≈ 80.2 µM)
Staphylococcus aureus [6]
  MIC: 62.5 µg/mL (≈ 160 µM)

## CCCCC(=O)N(Cc1cc2ccccc2c2ccccc12)c1ccc2ccccc2c1O
Staphylococcus aureus [3]
  MIC: 62.5 µg/mL (≈ 144 µM)
Staphylococcus aureus [6]
  MIC: 125 µg/mL (≈ 288 µM)

## C=CC(=O)N(Cc1cc2ccccc2s1)c1ccc2ccccc2c1O
Staphylococcus aureus [3]
  MIC: 7.8 µg/mL (≈ 21.7 µM)
Staphylococcus aureus [6]
  MIC: 7.8 µg/mL (≈ 21.7 µM)

## COc1ccccc1-c1ccc(O)c(N(Cc2cc3ccccc3s2)C(=O)CCC(F)(F)F)c1
Staphylococcus aureus [1]
  MIC: > 16 µg/mL
Staphylococcus aureus [3]
  MIC: 1 µg/mL (≈ 2.06 µM)
Staphylococcus aureus [5]
  MIC: 3 µg/mL (≈ 6.18 µM)
Staphylococcus aureus [6]
  MIC: 1 µg/mL (≈ 2.06 µM)
Staphylococcus aureus [7]
  MIC: 16 µg/mL (≈ 33 µM)
Staphylococcus hominis
  MIC: > 32 µg/mL
Staphylococcus aureus [8]
  MIC: 16 µg/mL (≈ 33 µM)
Streptomyces albus
  MIC: 16 µg/mL (≈ 33 µM)
Staphylococcus aureus [9]
  MIC: 6 µg/mL (≈ 12.4 µM)
Staphylococcus aureus [10]
  MIC: 6 µg/mL (≈ 12.4 µM)
Staphylococcus aureus [14]
  MIC: 16 µg/mL (≈ 33 µM)
Staphylococcus aureus [15]
  MIC: 16 µg/mL (≈ 33 µM)
Staphylococcus aureus [16]
  MIC: 16 µg/mL (≈ 33 µM)
Staphylococcus aureus [19]
  MIC: 3 µg/mL (≈ 6.18 µM)
Staphylococcus aureus [20]
  MIC: 3 µg/mL (≈ 6.18 µM)
Staphylococcus aureus [21]
  MIC: 6 µg/mL (≈ 12.4 µM)
